Data: patent US9180160B2, “Complement inhibitors for treatment of injury from intracerebral hemorrhage” (The Trustees of the University of Pennsylvania, priority 2008, dated 2015)
Entries after “also recorded” stand apart in the source; their conditions may differ.

How the values were obtained:
[1] = tested on: C57BL/6J mice subjected to ICH; experiment: 28-point neurological function score after ICH (autologous blood infusion); assay type: in vivo
Procedure: (§1) Animal Preparation and Intracerebral Infusion. Adult male C57BL/6J mice weighing 23-30 g were used. Mice were randomized to receive intraperitoneal injection of either C3aRA (1 mg/kg) (SB290157, Calbiochem, Darmstadt, Germany) diluted in PBS and DMSO (1.16% v/v), or an equal volume of vehicle (PBS and DMSO, 1.16% DMSO v/v) either 45 minutes prior to ICH induction or 6 and 12 hours after induction of ICH, followed in both cohorts by twice daily doses for 72 hours. […] Sham animals were given PBS and DMSO (1.16% v/v) in the same manner.
(§2) Mice were anesthetized with a single intraperitoneal dose of ketamine (90 mg/kg) and xylazine (5 mg/kg). Next, the mice were placed in a stereotactic frame (ASI Instruments, Inc., Warren, Mich., USA) and subjected to ICH using autologous blood infusion as previously described (Rynkowski M A et al, 2008, Nat Protoc 3: 122-128), Briefly, a 1-mm burr hole was drilled 2.3 mm lateral to the midline and 0.2 mm anterior to the bregma. Thirty μL of autologous whole blood were drawn from the tail artery into a capillary tube. A 30-gauge needle was then advanced stereotactically through the burr hole into the right striatum (coordinates: 0.2 mm anterior, 2.3 mm lateral to the bregma, 3.5 mm ventral). Using a microinfusion pump (KDS220, KD Scientific Inc., Holliston, Mass., USA), 5 μL was delivered at a rate of 1.5 μL per minute. After a 7-minute period, an additional 25 μL was delivered at a constant rate of 1.5 μL per minute. […]
(§3) Neurofunction and behavioral testing. Sensorimotor function was evaluated by means of the 28-point neurological function score, corner test and forelimb placing tests, which were performed pre-operatively and at 6, 24, 48 and 72 hour post-injury. Navigational memory was evaluated with the means of a Morris water-maze (MWM) test pre-operatively and at 72 hours post ICH. […]
Neurological function. Acute neurological deficits were assessed using a 28-point scoring system including body symmetry, gait, climbing, circling behavior, front limb symmetry, compulsory circling and whisker response. […]

[2] = tested on: C57BL/6J mice subjected to ICH; experiment: Corner turn test (laterality index) after ICH; assay type: in vivo; conditions: for corner turn test (laterality index): 1 mg/kg i.p. first at 6 h and 12 h after ICH, then twice daily for 72 hours, versus vehicle
Procedure: as §1
as §2, with “ventral).” for “ventral). Using a microinfusion pump (KDS220, KD Scientific Inc., Holliston, Mass., USA), 5 μL was delivered at a rate of 1.5 μL per minute. After a 7-minute period, an additional 25 μL was delivered at a constant rate of 1.5 μL per minute.”
as §3
Corner test. […] The number of right and left turns out of 10 total attempts was recorded. The laterality index (LI) and normalized LI were calculated. The laterality index (LI) was calculated for each mouse, according to the formula: LI=(Number of right turns—Number of left turns)/(Total number of turns). The LI for the day before surgery (LIBS) and each of the post surgery days was calculated and normalized using the formula: Normalized LI=(LI+2)/(LIBS+2). […]

[3] = 1 mg/kg i.p. 45 minutes prior to ICH, then twice daily, 72 hours after ICH
[4] = 1 mg/kg i.p. first at 6 h and 12 h after ICH, then twice daily for 72 hours, versus vehicle

Compound	28-point neurological score [1, 3]	28-point neurological score [1, 4]	corner test performance (normalized laterality index) [2, 3]	corner turn test (laterality index) [2]
NC(N)=NCCC[C@H](NC(=O)COCC(c1ccccc1)c1ccccc1)C(=O)O [C3aRA]	no significant deficits compared with sham animals	significant improvement at 24, 48, and 72 hours; also recorded: significant improvement at 24, 48 and 72 hours	no significant deficits compared with sham animals	significant improvement at 48 hours
Acetyl-Phe-[Orn-Pro-D-cyclohexylalanine-Trp-Arg] [C5aRA]		significant improvement at 24, 48 and 72 hours		significant improvement at 48 hours
